The record followed here is PMC9344462 (Journal of Medicinal Chemistry, 2022).

The target in assay [1] is PknGΔTPRΔ73 mutant Y234L (Mycobacterium tuberculosis, UniProt P9WI73, Y234L). Type of assay: binding. The following applies: 100 µM.
For assay [2], the target named is PknGΔTPRΔ73 mutant V235P (Mycobacterium tuberculosis, UniProt P9WI73, V235P). The assay is classed as binding. The following applies: 100 µM.
The target of assay [3] is PknGΔTPRΔ73 mutant I292G (Mycobacterium tuberculosis, UniProt P9WI73, I292G). Type of assay: binding. The following applies: 100 µM.
For assay [4], the target named is full-length PknG with natural substrate GarA (Mycobacterium tuberculosis, UniProt P9WI73). The experiment in a line: Kinase Glo Plus luminescent end point inhibition assay. The assay is classed as biochemical. The following applies: tethered docking compounds assayed at 40 μM. In general terms: In Kinase-Glo more light means more ATP remaining.

For the compound `NC(=O)c1c(N)c(C(=O)c2ccc(F)cc2)n2ccccc12` [B1], the “shift in the melting temperature” value in assay [1], in assay [2] and in assay [3] was “no shift” each time.

In the case of `CC(C)c1ccc(C(=O)c2c(N)c(C(N)=O)c3ccccn23)cc1` [T1], the kinase activity result in assay [4] was “considerably diminished kinase activity”.

For `NC(=O)c1c(NC(=O)NCC2CCCO2)sc2c1CCCC2` (stereo not drawn) [T2], the kinase activity entry in assay [4] is given as “considerably diminished kinase activity”.

Regarding `CCN1CCCC1CNC(=O)Nc1sc2c(c1C(N)=O)CCCC2` (stereo not drawn) [T3], the kinase activity result in assay [4] is given as “considerably diminished kinase activity”.
